Measured values taken from ChEMBL document CHEMBL4411307, “N,N'-diaryl-bishydrazones in a biphenyl platform: Broad spectrum antifungal agents” (Eur J Med Chem, 2019).
In brackets after ≈: the same amount, converted by molar mass. Activity calls are given as the source filed them. No cut-off for these calls is given here.

Key:
[1] = Selectivity index, ratio of compound concentration showing <20 to <30% hemolysis in mouse RBC to MIC for Aspergillus flavus ATCC MYA-3631; type: toxicity; conditions: mouse red blood cells (RBC), read-out: Selectivity Index
[2] = Hemolytic activity in mouse RBC at 1.95 ug/ml after 1 hr relative to control; type: ADME, cell-based, Erythrocyte; conditions: red blood cells (erythrocytes), read-out: Activity
[3] = Selectivity index, ratio of compound concentration showing <20 to <30% hemolysis in mouse RBC to MIC for Aspergillus terreus ATCC MYA-3633; type: toxicity; conditions: mouse red blood cells (RBC), read-out: Selectivity Index
[4] = Selectivity index, ratio of compound concentration showing <20 to <30% hemolysis in mouse RBC to MIC for Candida parapsilosis ATCC 22019; type: toxicity; conditions: mouse red blood cells (RBC), read-out: Selectivity Index
[5] = Selectivity index, ratio of compound concentration showing <20 to <30% hemolysis in mouse RBC to MIC for fluconazole/ITC-resistant Candida albicans ATCC MYA-1237; type: toxicity; conditions: mouse red blood cells (RBC), read-out: Selectivity Index
Candida albicans [6] = test: Antifungal activity against fluconazole/ITC-susceptible Candida albicans ATCC MYA-2876 measured after 48 hrs by CLSI M27-A3 protocol based method; type: functional; conditions: ATCC MYA-2876, 48 h
[7] = Selectivity index, ratio of compound concentration showing <20 to <30% hemolysis in mouse RBC to MIC for Aspergillus nidulans ATCC 38163; type: toxicity; conditions: mouse red blood cells (RBC), read-out: Selectivity Index
[8] = Selectivity index, ratio of CC50 for human A549 cells to MIC for fluconazole/ITC-susceptible Candida albicans ATCC MYA-2876; type: toxicity; conditions: read-out: Selectivity Index
[9] = Selectivity index, ratio of CC50 for human A549 cells to MIC for fluconazole/ITC-resistant Candida albicans ATCC 90819; type: toxicity; conditions: read-out: Selectivity Index
Candida albicans [10] = test: Antifungal activity against fluconazole/ITC-resistant Candida albicans ATCC 10231 measured after 48 hrs by CLSI M27-A3 protocol based method; type: functional; conditions: ATCC 10231, 48 h
Pichia kudriavzevii = test: Antifungal activity against Candida krusei ATCC 6258 measured after 48 hrs by CLSI M27-A3 protocol based method; type: functional; conditions: ATCC 6258, 48 h
Candida albicans [11] = test: Antibiofilm activity against fluconazole/ITC-resistant Candida albicans ATCC 64124 assessed as reduction in sessile growth after 24 hrs by XTT assay; type: functional; conditions: ATCC 64124, 24 h
[12] = Selectivity index, ratio of compound concentration showing <20 to <30% hemolysis in mouse RBC to MIC for fluconazole/ITC-susceptible Candida albicans ATCC MYA-2310; type: toxicity; conditions: mouse red blood cells (RBC), read-out: Selectivity Index
[13] = Selectivity index, ratio of CC50 for human A549 cells to MIC for fluconazole/ITC-resistant Candida albicans ATCC MYA-1003; type: toxicity; conditions: read-out: Selectivity Index
[14] = Hemolytic activity in mouse RBC at 7.8 ug/ml after 1 hr relative to control; type: ADME, cell-based, Erythrocyte; conditions: red blood cells (erythrocytes), read-out: Activity
Candida parapsilosis = test: Antifungal activity against Candida parapsilosis ATCC 22019 measured after 48 hrs by CLSI M27-A3 protocol based method; type: functional; conditions: Lodderomyces parapsilosis, ATCC 22019, 48 h
[15] = Selectivity index, ratio of CC50 for human A549 cells to MIC for fluconazole/ITC-resistant Candida albicans ATCC MYA-1237; type: toxicity; conditions: read-out: Selectivity Index
[16] = Hemolytic activity in mouse RBC at […] after 1 hr relative to control; type: ADME, cell-based, Erythrocyte; conditions: red blood cells (erythrocytes), read-out: Activity; note: tested at 0.48 µg/mL
Aspergillus flavus = test: Antifungal activity against Aspergillus flavus ATCC MYA-3631 measured after 48 hrs by CLSI M38-A2 protocol based method; type: functional; conditions: ATCC MYA-3631, 48 h
[17] = Selectivity index, ratio of compound concentration showing <20 to <30% hemolysis in mouse RBC to MIC for fluconazole/ITC-resistant Candida albicans ATCC 64124; type: toxicity; conditions: red blood cells (erythrocytes), read-out: Selectivity Index
[18] = Hemolytic activity in mouse RBC at 31.3 ug/ml after 1 hr relative to control; type: ADME, cell-based, Erythrocyte; conditions: red blood cells (erythrocytes), read-out: Activity
Nakaseomyces glabratus = test: Antifungal activity against Candida glabrata ATCC 2001 measured after 48 hrs by CLSI M27-A3 protocol based method; type: functional; conditions: CBS 138, 48 h
[19] = Hemolytic activity in mouse RBC at 62.5 ug/ml after 1 hr relative to control; type: ADME, cell-based, Erythrocyte; conditions: red blood cells (erythrocytes), read-out: Activity
Candida albicans [20] = test: Fungicidal activity against fluconazole/ITC-resistant Candida albicans ATCC 10231 assessed as reduction in fungal growth at 0.5 to 2 times MIC incubated for 24 hrs followed by replating on PDA plates measured after 48 hrs Time-Kill assay; type: functional, organism-based
Aspergillus terreus = test: Antifungal activity against Aspergillus terreus ATCC MYA-3633 measured after 48 hrs by CLSI M38-A2 protocol based method; type: functional; conditions: ATCC MYA-3633, 48 h
A549 = test: Cytotoxicity against human A549 cells after 24 hrs by resazurin based assay; type: cell-based; conditions: a549, 24 h
Staphylococcus aureus = test: Antibacterial activity against methicillin-resistant Staphylococcus aureus; type: functional, organism-based
Candida albicans [21] = test: Antifungal activity against fluconazole/ITC-resistant Candida albicans ATCC 90819 measured after 48 hrs by CLSI M27-A3 protocol based method; type: functional; conditions: ATCC 90819, 48 h
Candida albicans [22] = test: Selectivity ratio of MIC50 for antibiofilm activity against fluconazole/ITC-resistant Candida albicans ATCC 10231 assessed as reduction in sessile growth to MIC for fluconazole/ITC-resistant Candida albicans ATCC 10231; type: functional
[23] = Selectivity index, ratio of compound concentration showing <20 to <30% hemolysis in mouse RBC to MIC for fluconazole/ITC-resistant Candida albicans ATCC 90819; type: toxicity; conditions: red blood cells (erythrocytes), read-out: Selectivity Index
[24] = Selectivity index, ratio of CC50 for human A549 cells to MIC for fluconazole/ITC-susceptible Candida albicans ATCC MYA-2310; type: toxicity; conditions: read-out: Selectivity Index
[25] = Selectivity index, ratio of CC50 for human A549 cells to MIC for fluconazole/ITC-resistant Candida albicans ATCC 64124; type: toxicity; conditions: read-out: Selectivity Index
[26] = Selectivity index, ratio of CC50 for human A549 cells to MIC for Candida glabrata ATCC 2001; type: toxicity; conditions: read-out: Selectivity Index
Candida albicans [27] = test: Selectivity ratio of MIC90 for antibiofilm activity against fluconazole/ITC-resistant Candida albicans ATCC 64124 assessed as reduction in sessile growth to MIC for fluconazole/ITC-resistant Candida albicans ATCC 64124; type: functional
Candida albicans [28] = test: Selectivity ratio of MIC50 for antibiofilm activity against fluconazole/ITC-resistant Candida albicans ATCC 64124 assessed as reduction in sessile growth to MIC for fluconazole/ITC-resistant Candida albicans ATCC 64124; type: functional
[29] = Hemolytic activity in mouse RBC at 3.9 ug/ml after 1 hr relative to control; type: ADME, cell-based, Erythrocyte; conditions: red blood cells (erythrocytes), read-out: Activity
[30] = Selectivity index, ratio of compound concentration showing <20 to <30% hemolysis in mouse RBC to MIC for fluconazole/ITC-resistant Candida albicans ATCC 10231; type: toxicity; conditions: red blood cells (erythrocytes), read-out: Selectivity Index
[31] = Selectivity index, ratio of CC50 for human A549 cells to MIC for Aspergillus terreus ATCC MYA-3633; type: toxicity; conditions: read-out: Selectivity Index
[32] = Selectivity index, ratio of compound concentration showing <20 to <30% hemolysis in mouse RBC to MIC for Candida glabrata ATCC 2001; type: toxicity; conditions: mouse red blood cells (RBC), read-out: Selectivity Index

Which results are given for `C/C(=N\Nc1ccc(F)cc1)c1ccc(-c2ccc(/C(C)=N/Nc3ccc(F)cc3)cc2)cc1`?
selectivity ratio [1]: 1 to 32; hemolysis at 1 h, 1.95 ug/ml [2]: 2.6%; selectivity ratio [3]: 1 to 32; selectivity ratio [4]: 1 to 32; selectivity ratio [5]: 1 to 32; MIC (Candida albicans [6]): 3.9 µg/mL (≈ 8.58 µM); selectivity ratio [7]: 1 to 32; selectivity ratio [8]: 4.3; selectivity ratio [9]: 2.1; MIC (Candida albicans [10]): 1.95 µg/mL (≈ 4.29 µM); MIC (Pichia kudriavzevii): 1.95 µg/mL (≈ 4.29 µM); MIC50 (Candida albicans [11]): 16 µg/mL (≈ 35.2 µM); MIC90 (Candida albicans [11]): > 32 µg/mL; selectivity ratio [12]: 1 to 32; selectivity ratio [13]: 2.1; hemolysis at 1 h, 7.8 ug/ml [14]: 5.9%; MIC (Candida parapsilosis): 15.6 µg/mL (≈ 34.3 µM); selectivity ratio [15]: 2.1; hemolysis at 1 h, […] [16]: 0%; MIC (Aspergillus flavus): > 31.3 µg/mL; selectivity ratio [17]: 1 to 32; hemolysis at 1 h, 31.3 ug/ml [18]: 9.5%; MIC (Nakaseomyces glabratus): 15.6 µg/mL (≈ 34.3 µM); hemolysis at 1 h, 62.5 ug/ml [19]: 26.2%; Activity (Candida albicans [20]): Active; MIC (Aspergillus terreus): > 31.3 µg/mL; CC50 (A549): 16.6 µg/mL (≈ 36.5 µM); Activity (Staphylococcus aureus): inactive; MIC (Candida albicans [21]): 7.8 µg/mL (≈ 17.2 µM); selectivity ratio (Candida albicans [22]): 4; selectivity ratio [23]: 1 to 32; selectivity ratio [24]: 8.5; selectivity ratio [25]: 4.3; selectivity ratio [26]: 1.1; selectivity ratio (Candida albicans [27]): 8; selectivity ratio (Candida albicans [28]): 4; hemolysis at 1 h, 3.9 ug/ml [29]: 2.6%; selectivity ratio [30]: 1 to 32; selectivity ratio [31]: 0.5; selectivity ratio [32]: 1 to 32
